In patent US20200038416A1, “METHODS OF TREATING CARDIAC CONDUCTION DEFECTS USING AMINOSTEROL COMPOSITIONS” (Enterin, Inc., priority 2018, published 2020):
“And” between values parts separate entries of the source, which are not always exact repeats. Equal values may be shown once.

Experiments:
patients with PD [1] = assay: CNS symptoms in Stage 2 (UPDRS, MMSE, PDHQ, BDI-II, hallucinations); format: in vivo, human; settings: for patients whose hallucinations or delusions improved or disappeared during treatment: 6 patients with hallucinations (5) or delusions (1) at baseline
Text: Exploratory end-points, in addition to constipation, included for example, (i) depression assessed using the Beck Depression Inventory (BDI-II) (Steer et al. 2000) and Unified Parkinson's Disease Rating Scale (UPDRS); (ii) cognition assessed using the Mini Mental State Examination (MMSE), Unified Parkinson's Disease Rating Scale (UPDRS), and Trail Making Test (TMT); (iii) sleep and REM-behavior disorder (RBD) using a daily sleep diary, I-Button Temperature Assessment, a REM sleep behavior disorder (RBD) questionnaire (RBDQ) (Stiasny-Kolster et al. 2007), and the UPDRS; (iv) hallucinations assessed using the PD hallucinations questionnaire (PDHQ) (Papapetropoulos et al. 2008), the UPDRS, and direct questioning; (v) fatigue using the Parkinson's Disease Fatigue Scale (PFS-16) and the UPDRS; (vi) motor functions using the UPDRS; and (vii) non-motor functions using the UPDRS.
Assessments were made at baseline and at the end of the fixed dose and washout periods. Circadian system status was evaluated by continuously monitoring wrist skin temperature (Thermochron iButton DS1921H; Maxim, Dallas) following published procedures (Sarabia et al. 2008).
An exploratory analysis was done with respect to the sleep data, the body temperature data, mood, fatigue, hallucinations, cognition and other motor and non-motor symptoms of PD. Continuous measurements within a subject were compared with a paired t-test and continuous measurements between subject groups were compared with a two-group t-test. Categorical data were compared with a chi-squared test or a Fisher's exact test if the expected cell counts are too small for a chi-squared test.
CNS symptoms were evaluated at baseline and at the end of the fixed dose period and the wash-out period (Table 12). Total UPDRS score was 64.4 at baseline, 60.6 at the end of the fixed dose period and 55.7 at the end of the wash-out period (p=0.002); similarly, the motor component of the UPDRS improved from 35.3 at baseline to 33.3 at the end of fixed dose to 30.2 at the end of wash-out (p=0.006). MMSE improved from 28.4 at baseline to 28.7 during treatment and to 29.3 during wash-out (p=0.0006). […] PDHQ improved from 1.3 at baseline to 1.8 during treatment and 0.9 during wash-out (p=0.03). Hallucinations were reported by 5 patients at baseline and delusions in 1 patient. […] The frequency of arm or leg thrashing reported in the sleep diary diminished progressively from 2.2 episodes/week at baseline to 0 at maximal dose. […] Unlike stool-related indices, the improvement in many CNS symptoms persisted during wash-out.

αS = αS (Homo sapiens, UniProt P37840); settings: in vitro; cited from earlier work
patients with PD [2] = assay: Sleep diary: total sleep time and REM-behavior disorder; format: in vivo, human
Method: FIG. 3 is a chart of total sleep time in relation to squalamine dose. Total sleep time was obtained from the sleep diary by subtracting awake time during the night from total time spent in bed. Total sleep time per night was logged for each patient at baseline, each dosing period and at washout, and the means were determined. The light grey bar represents the baseline value for each cohort at a given dose level and the dark grey bar represents the value for the same cohort at the stated dose of squalamine (ENT-01; Kenterin™). The number of patients represented at each value are: Baseline, 33; 75 mg, 21; 100 mg, 28; 125 mg, 18; 150 mg, 15; 175 mg, 12; 200 mg, 7; 225 mg, 3; 250 mg, 2; washout, 33. P values were as follows: 75 mg, p=0.4; 100 mg, p=0.1; 125 mg, p=0.3; 150 mg, p=0.07; 175 mg, p=0.03; 200 mg, p=0.3; 225 mg, p=0.5; 250 mg, p=0.3; wash-out, p=0.04 (paired t test).
(5) Sleep Diary (participants completed a sleep diary on a daily basis throughout the study. The diaries included time into bed and estimated time to sleep as well as wake time and duration during the night.); […]

Question: Which “patients whose hallucinations or delusions improved or disappeared during treatment” value (patients with PD [1]) does the source give for `CC(C)[C@@H](CC[C@@H](C)[C@H]1CC[C@H]2[C@@H]3[C@H](O)C[C@H]4C[C@@H](NCCCNCCCCN)CC[C@]4(C)[C@H]3CC[C@]12C)OS(=O)(=O)O` (single isomer, unassigned) [squalamine (ENT-01), squalamine] here?
Answer: Its value is “five and 5 of 6”.

Question: And the “patients whose hallucinations or delusions improved or disappeared during treatment” value (patients with PD [1]; listed as ENT-01)?
Answer: Its value is “five”.

Question: And the “improvement in Part 1 of the UPDRS” value (patients with PD [1]; baseline 11.6 to wash-out 9.5)?
Answer: Its value is roughly 20%.

Question: What about the “time hallucinations/delusions did not return following discontinuation” value (patients with PD [1]; single patients) of the same molecule?
Answer: The value was 4 weeks and 2 weeks.

Question: What about the “displacement of αS from membranes” value (αS) of the same molecule?
Answer: Its value is “can displace αS from membranes in vitro”.

Question: What about the “RBD and total sleep time” value (patients with PD [2]; dose escalation, Stage 2) of the same molecule?
Answer: Its value is “improved progressively in a dose-dependent manner”.

Question: What about the “total sleep time versus baseline by dose” value (patients with PD [2]; doses beyond 125 mg) of the same molecule?
Answer: The value was “consistently higher than baseline beyond 125 mg”.
